Data as given in patent US10647677B2, “Analogues of hydroxychloroquine (HCQ) without retinal toxicity” (Inoviem Scientific, priority 2015, dated 2020).

Legend:
Assay type in all cases: in vivo
[1] = system: C57Bl/6 mice, pulmonary vasculitis induced by immune complexes; assay: Pulmonary vasculitis induced by immune complexes: neutrophils in bronchoalveolar lavages (flow cytometry); details: HCQ 10 mg/kg, CB137 10, 30 and 100 mg/kg, 4 hours after instillation, compared to control + (FIG. 5)
Method: Female C57Bl/6 strain mice from the Jackson Laboratory, 8-10 weeks old and weighing about 20 g, are used in all experiments. The mice are maintained at a temperature of 23° C.±1° C. with 12-hour light/dark cycle. Mice have access to water and food ad libitum and are housed at least one week before the beginning of any experiments.
A retro-orbital blood sampling was performed using capillaries containing heparin on mice anesthetized with isoflurane the day before the manipulation. The next day, the mice were anesthetized with a mixture of ketamine and xylasin (90 mg/kg and 125 mg/kg, respectively). The immune IgG complex is induced in the lungs by intratracheal instillation of 0.5 mg of anti-BSA rabbit antibody (MP Biomedicals, Strasbourg, France) and by the administration of 0.5 mg per mouse of BSA antigen in the caudal vein (Warner et al., 2001 and Warren et al., 1989). The specified treatment (PF-1355, CB137 or solvent alone) is administered enterally. The animals are euthanized 4 hours after intratracheal instillation.
The animals are euthanized 4 hours after the intratracheal instillation by a lethal injection of pentobarbital. A submandibular blood sample is taken. […] The total number of cells, excluding any residual red cells and dead cells stained with trypan blue, is determined under the light microscope on a Malassez cell. […]

retina of mice = assay: Determination of retinopathy: histological analysis of the retina; details: HCQ 10 mg/kg or CB137 5, 10 and 15 mg/kg, 5 times weekly for 62 days (FIGS. 3 and 4)
Method: Histology: 7-week-old mice are injected with 10 mg/kg HCQ or 5, 10 and 15 mg/kg of the CB137 analog 5 times weekly for a period of 62 days. After assigning them a number, the mice are randomized according to their weight and treatment. The mice are divided in groups of 5 in cages, one mouse being treated with the carrier, one with HCQ 10 mg/kg, one with CB137 5 mg/kg, one with CB137 10 mg/kg and one with CB137 15 mg/Kg. The mice are housed in an environment maintained at a temperature of 22° C., 35-55% humidity and with 12-hour cycles of light/darkness.
At the end of the experiment, the mice are euthanized by cervical dislocation. The eyeballs are isolated and stored in a solution containing 4% paraformaldehyde, 5% glutaraldehyde and 0.1 M sodium cacodylate overnight at 4° C. The samples are washed, dehydrated and embedded in paraffin. The 4-μm retinal sections are stained with 1% toluidine blue followed by 1% methylene blue. The retinal toxicity of the samples is then determined by analysis of the sections under microscope.

[2] = system: MRL/Ipr mice (lupus model); assay: Survival of MRL/Ipr mice (lupus model); details: 10 mg/kg IP, compared with HCQ at the same dose (FIG. 1)
Method: (§1) The MRL/MPJ-Fas (Ipr) (MRL-Ipr) and C57Bl/6 mice for the behavioral experiments are from the Jackson Laboratory and are randomly distributed into 5 groups. All animals were kept at controlled temperature (23° C.+/−1° C.) with a 12-hour day/night cycle, water and ad libitum food.
(§2) Mice received the specified dose of hydroxychloroquine (Tokyo Chemical Industry), CB137 or carrier intraperitoneally (IP), every 24 hours and for 5 days over a 10-week period. With regard to the MRL/Ipr mice, treatment started at 7 weeks of age, and ended at 23 weeks of age where a significant proportion of untreated mice died. With regard to the C57B1/6 mice, the same treatment program was carried out and the mice were sacrificed after […]. HCQ and CB137 were each freshly prepared in physiological saline and injected into the mice in a final volume of 50 μL. The MRL/Ipr mice were examined daily for skin lesions. For histological analysis, the animals were sacrificed and the tissues were rapidly dissected and immediately post-fixed.

[3] = system: MRL/Ipr mice (lupus model); assay: Development of the disease: dermatitis in MRL/Ipr mice; details: 10 mg/kg, compared to carrier and HCQ 10 mg/kg (FIG. 2)
Method: as §1, §2
Dermatitis was less common in mice treated with CB137 10 mg/kg compared to control (carrier) mice and HCQ treated mice (10 mg/kg (FIG. 2).

Compound	amount of neutrophils in bronchoalveolar lavages / lungs [1]	retinal lesions (histology) (retina of mice)	survival rate [2]	dermatitis (rate of mice having dermatitis) [3]
CCN(CCO)CCCC(C)Nc1c(Cl)cnc2cc(Cl)ccc12 (stereo not drawn) [CB137]	decreases the amount of neutrophils	does not induce more lesions than in the control mice	significantly higher survival rate	less common
CCN(CCO)CCCC(C)Nc1ccnc2cc(Cl)ccc12 (stereo not drawn) [Commercial HCQ, hydroxychloroquine]	slightly increase the amount of neutrophils	induces retinal lesions	–	–
